This note sets out measurements from US9802912B2, “Cyclic ortho ester fuel additive” (AIRBUS OPERATIONS LIMITED, priority 2013, dated 2017).

Data set [1] in a line: GC measurement of hydrolysis of triethyl orthoformate by water in Jet A-1. It counts as physicochemical. Here is the method:
The analyses were performed using an Agilent 5890 gas chromatograph equipped with a flame ionisation detector. The GC column used was of fused silica, HP-5MS, 30 m by 0.25 mm, with a helium flow rate of 1.5 mL/min. The temperature for the detector and injector was fixed at 250° C. The oven temperature used for the analysis was 80° C. for 4 minutes, then it was increased at 20° C./min to 240° C. and held for 2 minutes.
Jet A-1, obtained by Air BP (Batch number BIS/HAL/12/035K), was dried by storing it over 3 Å molecular sieve for at least 24 hours. Standards with different water concentrations were prepared by adding measured volumes of distilled water by SGE μL syringes to 20 ml of anhydrous Jet A-1, taking extra care to inject the water in the middle of the solvent. Each standard was prepared just before use and ultrasonicated for 5 minutes to ensure an equal distribution of water.
A reactant solution was prepared to enable a simple, one-step addition of all the necessary chemicals. […]
For each water standard, the relative peak area (RPA) of ethanol was calculated by dividing the ethanol peak area by the internal standard peak area. […]

Data set [2] is described as follows: 1H NMR kinetics of acid catalysed hydrolysis of TMOA in AcOH/AcONa buffers. It counts as physicochemical. The procedure:
Five buffers with constant acetic acid (AcOH) concentration and different H^+ concentrations were made by varying the amount of sodium acetate (AcONa) added (see Table 1). As the ionic concentration of the solution has an impact on the rate constant of hydrolysis, sodium chloride was added to keep the ionic strength constant in all 5 buffers.
The reaction samples were prepared directly in 5 mm NMR tube by adding 15 μL of TMOA in 500 μL of acetone-d6. To start the reaction 100 μL of acetic acid/sodium acetate aqueous buffer was added. All chemicals were purchased at the highest level of purity from Sigma Aldrich. Acetone-D6 and TMOA were dried before each experiment by distilling from 3 Å molecular sieve under nitrogen. Sodium chloride and sodium acetate were dried by heating them at T=100° C. for 4 hours under vacuum.
A 300 MHz NMR spectrometer was used to follow the concentration of TMOA with time by acquiring nine sequential ^1H NMR spectra every 10 min (actual delay time=10.38 min). Presaturation solvent suppression technique was used to obscure the H2O signal. An external reference was used by adding to the NMR tube a sealed capillary tube with 3-(trimethylsilyl)-1-propanesulfonic acid sodium salt dissolved in D2O (concentration=0.1966 M).
The TMOA ^1H NMR spectrum consists of two singlets resonating at 3.15 and 1.33 ppm, assigned to the —OCH3 and —CH3 residues, respectively (integrating 3:1—FIG. 7). The relative peak area (RPA—proportional to concentration) was measured by comparing the —CH3 resonance with that of the external reference.
The approach adopted for determining kH+ and kHA, was to exploit the constancy of Ka (=1.75×10^−5 mol/L) whilst varying the numerators (i.e., [A^−] 2→0.1 and pH 5.07→3.74) and maintaining [HA] constant (i.e., 0.192 mol/L). As the overall rate of reaction (equation III) is a summation of both processes described by kH+ and kHA, the rate constant kobs is therefore proportional to the concentration of both associated and dissociated acids (equation IV). rate=kobs[R—C(OR)3] (III) kobs=kH+[H^+]+kHA[HA] (IV)
Given that [HA] is constant, expression IV becomes equivalent to that of a straight line and kH+ and kHA may be determined by plotting kobs vs [H^+]. To obtain kobs however, the rate equation integrated over time (Eq. V) must be used. In[R—C(OR)3]t—In[R—C(OR)3]0=−kobst (V)
^1H NMR spectroscopy is the technique of choice when studying processes which occur on this timescale. Our choice of HA was acetic acid (AcOH), and five buffered solutions with different H^+ concentration were prepared by varying the amount of sodium acetate (AcONa=A^−). For the study, we switched focus from the aldehyde derivative TEOF (5, Scheme 1) used for the proof of concept study to the faster reacting keto-derivative trimethyl orthoacetate (TMOA) 8, Scheme 2 where R=—CH3) for reasons of atom economy (20% lighter).
[H^+] may be plotted (FIG. 5) and a straight line fitted (y=35.464×+1.6×10^−3; R^2=0.993) from which values for the gradient of the slope and y-intercept afford kH+=35.5 min^−1 and, kHA=7.8×10^−3 min^−1 respectively. It is clear that the pathway catalysed by dissociated acid H^+ (specific acid catalysis—scheme 2) is approximately 4500 times faster than the pathway catalysed by undissociated AcOH, within the pH range studied here (3.7→5.0).

For the compound `CCOC(OCC)OCC` [compound 5, triethyl orthoformate], in data set [1] (Jet A-1, methane sulfonic acid, 30 minutes), the “reaction with water, completion” value worked out at 100%. In addition, the “reaction with water, complete” value in data set [1] (Jet A-1, no added acid catalyst, after 2 days) is on record as 60-75%.

In the case of `COC(C)(OC)OC` [TMOA, trimethyl orthoacetate], the Kobs is 0.0016 min⁻¹ in data set [2] ([AcOH]/[AcONa] 0.486, [H+] 8.51 × 10^−6 mol/L); 0.0024 min⁻¹ in data set [2] ([AcOH]/[AcONa] 1, [H+] 1.75 × 10^−5 mol/L); 0.0036 min⁻¹ in data set [2] ([AcOH]/[AcONa] 2.918, [H+] 5.11 × 10^−5 mol/L); 0.0042 min⁻¹ in data set [2] ([AcOH]/[AcONa] 4, [H+] 7.00 × 10^−5 mol/L); 0.008 min⁻¹ in data set [2] ([AcOH]/[AcONa] 10.378, [H+] 1.82 × 10^−4 mol/L). For the same compound, the “kHA (general acid catalysis, undissociated AcOH)” value in data set [2] (from y-intercept of kobs v. [H+], [HA] 0.192 mol/L) turned out to be 0.0078 min⁻¹. In addition, the “kH+ (specific acid catalysis)” value in data set [2] (gradient of kobs v. [H+], pH 3.7-5.0) amounted to 35.5 min⁻¹. Also, in data set [2] (pH 3.7-5.0), the “rate of pathway catalysed by H+ relative to pathway catalysed by undissociated AcOH” value is listed as “approximately 4500 times”.
